This passage reports IC50 results from patent US11420958B2, “Aryl and heteroaryl substituted indole compounds” (BRISTOL-MYERS SQUIBB COMPANY, priority 2017, dated 2022).

For orientation: IC50 means the concentration that inhibits the measured activity by half. A higher IC50 goes with weaker potency in that assay.

Type in all cases: cell-based
One assay concerns the target human TLR7 (Homo sapiens (Human), UniProt Q9NYK1). Description: TLR7 inhibition reporter assay (HEK-Blue, SEAP). Conditions: HEK-Blue cells overexpressing human TLR7, gardiquimod 7.5 μM stimulation. A digest of the protocol:
(§1)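 Percent inhibition of agonist-induced SEAP secretion was scored against DMSO-only and reference-inhibitor controls. Stimulation lasted 22 h at 37 °C following 30 min compound pre-exposure (0.05 nM–50 μM); ligands were gardiquimod 7.5 μM, R848 15.9 μM and ODN2006 5 nM for TLR7, 8 and 9.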
A general note: A reporter such as luciferase makes a cellular process visible.

In another assay the target is human TLR8 (Homo sapiens (Human), UniProt Q9NR97). Put plainly: TLR8 inhibition reporter assay (HEK-Blue, SEAP). To be noted: HEK-Blue cells overexpressing human TLR8, R848 15.9 μM stimulation. The essentials: as §1
The next assay deals with human TLR9 (Homo sapiens (Human), UniProt Q9NR96). Put plainly: TLR9 inhibition reporter assay (HEK-Blue, SEAP). To be noted: HEK-Blue cells overexpressing human TLR9, ODN2006 5 nM stimulation. A digest of the protocol: as §1
Sequence of human TLR9 (Q9NR96 26-1032): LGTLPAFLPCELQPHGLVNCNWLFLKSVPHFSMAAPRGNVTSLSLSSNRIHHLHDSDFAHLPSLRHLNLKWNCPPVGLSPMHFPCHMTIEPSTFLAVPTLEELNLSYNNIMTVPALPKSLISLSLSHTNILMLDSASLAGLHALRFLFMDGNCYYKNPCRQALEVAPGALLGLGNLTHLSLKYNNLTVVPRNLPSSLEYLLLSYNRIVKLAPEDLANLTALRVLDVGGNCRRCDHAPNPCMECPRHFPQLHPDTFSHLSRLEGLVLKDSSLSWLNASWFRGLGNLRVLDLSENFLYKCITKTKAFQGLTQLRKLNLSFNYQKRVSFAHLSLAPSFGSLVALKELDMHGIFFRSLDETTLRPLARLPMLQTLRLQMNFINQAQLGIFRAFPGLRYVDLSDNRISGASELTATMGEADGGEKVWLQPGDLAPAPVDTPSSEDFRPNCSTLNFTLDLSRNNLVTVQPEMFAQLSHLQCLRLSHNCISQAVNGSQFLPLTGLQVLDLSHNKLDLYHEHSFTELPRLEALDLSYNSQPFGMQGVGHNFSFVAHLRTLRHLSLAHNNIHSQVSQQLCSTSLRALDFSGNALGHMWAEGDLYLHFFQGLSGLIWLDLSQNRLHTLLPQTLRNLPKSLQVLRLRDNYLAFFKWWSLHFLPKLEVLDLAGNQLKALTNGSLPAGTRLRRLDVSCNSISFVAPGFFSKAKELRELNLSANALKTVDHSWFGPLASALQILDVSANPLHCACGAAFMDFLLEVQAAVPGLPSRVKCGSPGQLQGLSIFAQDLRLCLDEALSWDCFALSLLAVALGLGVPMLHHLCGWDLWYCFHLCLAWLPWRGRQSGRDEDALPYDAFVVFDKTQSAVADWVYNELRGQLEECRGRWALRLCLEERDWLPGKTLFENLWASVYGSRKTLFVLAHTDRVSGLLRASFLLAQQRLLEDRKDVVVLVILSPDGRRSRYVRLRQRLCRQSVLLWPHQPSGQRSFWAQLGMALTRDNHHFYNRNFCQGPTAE

Sequence of human TLR8 (Q9NR97 27-1041): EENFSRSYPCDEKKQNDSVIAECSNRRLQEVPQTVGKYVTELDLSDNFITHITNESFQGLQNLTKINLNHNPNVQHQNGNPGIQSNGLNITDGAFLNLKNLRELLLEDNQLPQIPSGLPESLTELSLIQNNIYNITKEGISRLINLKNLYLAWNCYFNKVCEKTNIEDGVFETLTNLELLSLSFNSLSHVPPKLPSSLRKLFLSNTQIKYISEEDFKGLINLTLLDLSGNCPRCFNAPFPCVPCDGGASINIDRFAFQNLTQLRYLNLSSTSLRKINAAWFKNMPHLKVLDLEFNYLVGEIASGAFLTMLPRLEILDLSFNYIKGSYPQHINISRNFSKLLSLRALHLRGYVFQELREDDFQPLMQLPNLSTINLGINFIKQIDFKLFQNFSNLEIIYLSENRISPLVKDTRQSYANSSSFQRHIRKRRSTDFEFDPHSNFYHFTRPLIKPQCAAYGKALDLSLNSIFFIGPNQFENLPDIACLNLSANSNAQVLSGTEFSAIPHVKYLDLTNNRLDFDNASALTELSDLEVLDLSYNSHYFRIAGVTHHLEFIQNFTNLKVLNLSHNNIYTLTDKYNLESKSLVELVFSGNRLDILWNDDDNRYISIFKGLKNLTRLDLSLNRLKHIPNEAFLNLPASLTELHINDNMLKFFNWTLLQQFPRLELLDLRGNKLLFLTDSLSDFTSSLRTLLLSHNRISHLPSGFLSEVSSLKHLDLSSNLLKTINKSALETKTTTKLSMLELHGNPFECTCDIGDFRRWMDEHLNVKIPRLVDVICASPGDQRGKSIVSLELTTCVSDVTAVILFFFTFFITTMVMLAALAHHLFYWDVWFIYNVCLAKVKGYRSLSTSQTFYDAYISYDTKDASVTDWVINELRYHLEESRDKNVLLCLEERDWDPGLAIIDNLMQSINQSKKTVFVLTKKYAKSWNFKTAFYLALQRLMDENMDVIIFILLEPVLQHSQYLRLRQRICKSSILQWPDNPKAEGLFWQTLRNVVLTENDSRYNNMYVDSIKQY
Sequence of human TLR7 (Q9NYK1 27-1049): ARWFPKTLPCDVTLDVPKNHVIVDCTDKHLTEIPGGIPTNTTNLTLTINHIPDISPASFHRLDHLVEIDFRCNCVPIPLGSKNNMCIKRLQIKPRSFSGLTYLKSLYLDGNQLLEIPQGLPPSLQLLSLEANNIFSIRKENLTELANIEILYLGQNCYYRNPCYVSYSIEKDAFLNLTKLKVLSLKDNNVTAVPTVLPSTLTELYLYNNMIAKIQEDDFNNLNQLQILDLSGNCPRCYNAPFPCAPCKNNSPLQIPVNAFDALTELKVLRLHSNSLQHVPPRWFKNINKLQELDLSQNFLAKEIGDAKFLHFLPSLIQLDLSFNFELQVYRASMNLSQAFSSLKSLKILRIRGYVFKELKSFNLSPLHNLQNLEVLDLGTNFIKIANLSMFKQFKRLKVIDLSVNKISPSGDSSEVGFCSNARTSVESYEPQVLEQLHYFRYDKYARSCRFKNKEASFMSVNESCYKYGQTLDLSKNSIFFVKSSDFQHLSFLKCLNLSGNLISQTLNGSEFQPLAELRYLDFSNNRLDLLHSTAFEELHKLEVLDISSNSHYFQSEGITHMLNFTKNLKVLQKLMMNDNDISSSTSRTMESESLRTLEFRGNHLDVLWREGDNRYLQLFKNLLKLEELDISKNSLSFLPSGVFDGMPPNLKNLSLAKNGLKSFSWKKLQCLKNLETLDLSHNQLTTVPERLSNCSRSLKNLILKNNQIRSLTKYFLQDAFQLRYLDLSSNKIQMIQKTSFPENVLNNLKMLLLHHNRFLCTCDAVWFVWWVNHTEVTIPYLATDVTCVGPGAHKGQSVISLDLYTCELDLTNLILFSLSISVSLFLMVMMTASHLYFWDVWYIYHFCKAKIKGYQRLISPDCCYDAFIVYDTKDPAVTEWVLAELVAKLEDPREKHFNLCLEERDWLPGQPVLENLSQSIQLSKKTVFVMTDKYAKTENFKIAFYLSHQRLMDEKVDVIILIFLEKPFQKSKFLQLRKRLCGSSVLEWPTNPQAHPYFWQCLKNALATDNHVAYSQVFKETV

As to `Cc1cc(-c2[nH]c3ccc(-c4nc5c(s4)CN(C(=O)C4CC(=O)N(C)C4)CC5)cc3c2C(C)C)cc(C)n1` (stereo not drawn) [Example 364, 4-(2-(2-(2,6-dimethylpyridin-4-yl)-3-isopropyl-1H-indol-5-yl)-4,5,6,7-tetrahydrothiazolo[5,4-c]pyridine-5-carbonyl)-1-methylpyrrolidin-2-one], the IC50 was 20 nM on human TLR7, 11 nM on human TLR8 and over 50000 nM against human TLR9.

For the compound `Cc1cc(-c2[nH]c3ccc(-c4cnc(NC(=O)CN(C)C)cn4)cc3c2C(C)C)ccn1` [Example 365, 2-(dimethylamino)-N-(5-(3-isopropyl-2-(2-methylpyridin-4-yl)-1H-indol-5-yl)pyrazin-2-yl)acetamide], the figures for the concentration for half-maximal inhibition (IC50) on human TLR7, against human TLR8 and against human TLR9 were 7.3 nM, 1.6 nM and 1290 nM, respectively.

Regarding `Cc1cc(-c2[nH]c3ccc(-c4cc(F)c5nc(C)cn5c4)cc3c2C(C)C)cc(C)n1` [Example 366, 6-(2-(2,6-dimethylpyridin-4-yl)-3-isopropyl-1H-indol-5-yl)-8-fluoro-2-methylimidazo[1,2-a]pyridine], the IC50 against human TLR7 came out at 63 nM; against human TLR8, 84 nM; against human TLR9, 11500 nM.

With `Cc1cc(-c2[nH]c3ccc(-c4nnc(C5CCN(C)CC5)o4)cc3c2C(C)C)cn2ncnc12` [Example 367, 2-(3-isopropyl-2-(8-methyl-[1,2,4]triazolo[1,5-a]pyridin-6-yl)-1H-indol-5-yl)-5-(1-methylpiperidin-4-yl)-1,3,4-oxadiazole], the results for the IC50 at human TLR7, on human TLR8 and at human TLR9 were 0.37 nM, 0.6 nM and 673 nM, respectively.

As for `COc1ccc(-c2[nH]c3ccc(-c4cccc(N5CCN(C)CC5)c4)cc3c2C(C)C)cc1OC` [Example 369, 2-(3,4-dimethoxyphenyl)-3-isopropyl-5-(3-(4-methylpiperazin-1-yl)phenyl)-1H-indole], the IC50 is 2110 nM at human TLR7, 64 nM against human TLR8 and 2300 nM against human TLR9.

`COc1ccc(-c2[nH]c3ccc(-c4cccc(N5CCN(C(C)C)CC5)c4)cc3c2C(C)C)cc1OC` [Example 370, 2-(3,4-dimethoxyphenyl)-3-isopropyl-5-(3-(4-isopropylpiperazin-1-yl)phenyl)-1H-indole]: the IC50 stood at 3920 nM at human TLR7, 93 nM on human TLR8 and 4840 nM on human TLR9.

Take `COc1ccc(-c2[nH]c3ccc(-c4cccc(N5CCN(CC(C)C)CC5)c4)cc3c2C(C)C)cc1OC` [Example 371, 2-(3,4-dimethoxyphenyl)-5-(3-(4-isobutylpiperazin-1-yl)phenyl)-3-isopropyl-1H-indole]: the IC50 on human TLR7 is 894 nM; at human TLR8 it was 176 nM; at human TLR9, 10200 nM.

Regarding `COc1ccc(-c2[nH]c3ccc(-c4ccc(-c5cccc(CN6CCN(C)CC6)c5)cc4)cc3c2C(C)C)cc1OC` [Example 373, 2-(3,4-dimethoxyphenyl)-3-isopropyl-5-(3′-((4-methylpiperazin-1-yl)methyl)-[1,1′-biphenyl]-4-yl)-1H-indole], the figures for the IC50 at human TLR7, at human TLR8 and at human TLR9 were 1860 nM, 20100 nM and 4360 nM, respectively.

As for `COc1ccc(-c2[nH]c3ccc(-c4ccc(-c5cccc(CN(C)C)c5)cc4)cc3c2C(C)C)cc1OC` [Example 374, 1-(4′-(2-(3,4-dimethoxyphenyl)-3-isopropyl-1H-indol-5-yl)-[1,1′-biphenyl]-3-yl)-N,N-dimethylmethanamine], the IC50 against human TLR7 was 428 nM; at human TLR8 it was 317 nM; against human TLR9, over 50000 nM.

Take `COc1ccc(-c2[nH]c3ccc(-c4ccc(C5=CCN(C6CCN(CC(C)C)CC6)CC5)cc4)cc3c2C)cc1OC` [Example 375, 2-(3,4-dimethoxyphenyl)-5-(4-(1-(1-isobutylpiperidin-4-yl)-1,2,3,6-tetrahydropyridin-4-yl)phenyl)-3-methyl-1H-indole]: the half-maximal inhibitory concentration (IC50) against human TLR7 is over 50000 nM; against human TLR8, 12400 nM; against human TLR9, 291 nM.

As to `COc1ccc(-c2[nH]c3ccc(-c4ccc(C5=CCN(C)CC5)cc4)cc3c2C)cc1OC` [Example 376, 2-(3,4-dimethoxyphenyl)-3-methyl-5-(4-(1-methyl-1,2,3,6-tetrahydropyridin-4-yl)phenyl)-1H-indole], the values for the IC50 on human TLR7, on human TLR8 and at human TLR9 were 2880 nM, 487 nM and 2410 nM, respectively.

For `COc1ccc(-c2[nH]c3ccc(-c4ccc(C5=CC(C)(C)NC(C)(C)C5)cc4)cc3c2C(C)C)cc1OC` [Example 377, 2-(3,4-dimethoxyphenyl)-3-isopropyl-5-(4-(2,2,6,6-tetramethyl-1,2,3,6-tetrahydropyridin-4-yl)phenyl)-1H-indole], the IC50 was determined as 900 nM against human TLR7, 340 nM at human TLR8 and 4770 nM against human TLR9.

For the compound `COc1ccc(-c2[nH]c3ccc(-c4ccc(N5CCCN(CCO)CC5)cc4)cc3c2C(C)C)cc1OC` [Example 379, 2-(4-(4-(2-(3,4-dimethoxyphenyl)-3-isopropyl-1H-indol-5-yl)phenyl)-1,4-diazepan-1-yl)ethan-1-ol], the IC50 is 692 nM against human TLR7, 71 nM against human TLR8 and 2950 nM against human TLR9.

For the compound `COc1ccc(-c2[nH]c3ccc(-c4ccc(N5CCCN(C)CC5)cc4)cc3c2C(C)C)cc1OC` [Example 380, 2-(3,4-dimethoxyphenyl)-3-isopropyl-5-(4-(4-methyl-1,4-diazepan-1-yl)phenyl)-1H-indole], the IC50 on human TLR7 amounted to 881 nM; on human TLR8, 35 nM; at human TLR9 it was 2920 nM.

As for `CCc1c(-c2ccc(OC)c(OC)c2)[nH]c2ccc(-c3ccc(N4CCN(C)CC4)cc3)cc12` [Example 381, 2-(3,4-dimethoxyphenyl)-3-ethyl-5-(4-(4-methylpiperazin-1-yl)phenyl)-1H-indole], the IC50 on human TLR7 is 517 nM; against human TLR8, 22600 nM; at human TLR9, 46600 nM.

For the compound `COc1ccc(-c2[nH]c3ccc(-c4ccc(N5CCN(C(C)C)CC5)cc4)cc3c2C(C)C)cc1OC` [Example 382, 2-(3,4-dimethoxyphenyl)-3-isopropyl-5-(4-(4-isopropylpiperazin-1-yl)phenyl)-1H-indole], the IC50 against human TLR7 was 157 nM; on human TLR8, 32 nM; against human TLR9, 917 nM.

On to `COc1ccc(-c2[nH]c3ccc(-c4ccc(N5CCN[C@H](C)C5)cc4)cc3c2C(C)C)cc1OC` [Example 383, (R)-2-(3,4-dimethoxyphenyl)-3-isopropyl-5-(4-(3-methylpiperazin-1-yl)phenyl)-1H-indole], for which the IC50 at human TLR7 amounted to 136 nM; against human TLR8, 45 nM; against human TLR9 it was 4630 nM.

With `CCc1c(-c2ccnc3[nH]ncc23)[nH]c2ccc(-c3ccc(N4CCN(C)CC4)cc3)cc12` [Example 384, 4-(3-ethyl-5-(4-(4-methylpiperazin-1-yl)phenyl)-1H-indol-2-yl)-1H-pyrazolo[3,4-b]pyridine], the IC50 came out at 145 nM on human TLR7, 12 nM on human TLR8 and 1950 nM on human TLR9.

For the compound `COc1ccc(-c2[nH]c3ccc(-c4ccc(NC5CCN(C(C)C)CC5)cc4)cc3c2C(C)C)cc1OC` [Example 385, N-(4-(2-(3,4-dimethoxyphenyl)-3-isopropyl-1H-indol-5-yl)phenyl)-1-isopropylpiperidin-4-amine], the IC50 against human TLR7 worked out at 181 nM; at human TLR8 it was 30 nM; against human TLR9 it was 5890 nM.

As to `COc1ccc(-c2[nH]c3ccc(-c4ccc(NCC5CCN(C)C5)cc4)cc3c2C(C)C)cc1OC` (stereo not drawn) [Example 386, 4-(2-(3,4-dimethoxyphenyl)-3-isopropyl-1H-indol-5-yl)-N-((1-methylpyrrolidin-3-yl)methyl)aniline], the IC50 is 169 nM at human TLR7, 9.6 nM on human TLR8 and 3710 nM on human TLR9.

Regarding `COc1ccc(-c2[nH]c3ccc(-c4ccc(OC5CCN(C)CC5)cc4)cc3c2C(C)C)cc1OC` [Example 387, 2-(3,4-dimethoxyphenyl)-3-isopropyl-5-(4-((1-methylpiperidin-4-yl)oxy)phenyl)-1H-indole], the figures for the IC50 against human TLR7, on human TLR8 and against human TLR9 were 34 nM, 22 nM and 3900 nM, respectively.

On to `COc1ccc(-c2[nH]c3ccc(-c4ccc(OC5CCN(CC(C)C)CC5)cc4)cc3c2C(C)C)cc1OC` [Example 388, 2-(3,4-dimethoxyphenyl)-5-(4-((1-isobutylpiperidin-4-yl)oxy)phenyl)-3-isopropyl-1H-indole], for which the IC50 at human TLR7 was 636 nM; on human TLR8 it was 349 nM; at human TLR9, over 50000 nM.

For `COc1ccc(-c2[nH]c3ccc(-c4ccc(OC5CCN(C(C)C)CC5)cc4)cc3c2C(C)C)cc1OC` [Example 389, 2-(3,4-dimethoxyphenyl)-3-isopropyl-5-(4-((1-isopropylpiperidin-4-yl)oxy)phenyl)-1H-indole], the IC50 against human TLR7 is 338 nM; on human TLR8 it was 126 nM; at human TLR9, 2360 nM.

In the case of `COc1ccc(-c2[nH]c3ccc(-c4ccc(N5CCN(C(C)=O)CC5)nc4)cc3c2C(C)C)cc1OC` [Example 390, 1-(4-(5-(2-(3,4-dimethoxyphenyl)-3-isopropyl-1H-indol-5-yl)pyridin-2-yl)piperazin-1-yl)ethan-1-one], the IC50 is 969 nM against human TLR7, 44 nM at human TLR8 and over 50000 nM on human TLR9.

As to `COc1ccc(-c2[nH]c3ccc(-c4ccc(N5CCN(C)CC5)nc4)cc3c2C(C)C)cc1OC` [Example 392, 2-(3,4-dimethoxyphenyl)-3-isopropyl-5-(6-(4-methylpiperazin-1-yl)pyridin-3-yl)-1H-indole], the IC50 on human TLR7 worked out at 32 nM; at human TLR8, 7.5 nM; against human TLR9, 1070 nM.
